{"source": "patent US10640469B2", "about": "“Polyhydroxyphthalazinone compound, preparation method thereof and use thereof” (RejuvGen Pharmaceuticals, Inc., priority 2017, dated 2020)", "data": [{"target": "T1, ER-α receptor (Homo sapiens, UniProt P03372)", "T1 sequence (P03372 1-595)": "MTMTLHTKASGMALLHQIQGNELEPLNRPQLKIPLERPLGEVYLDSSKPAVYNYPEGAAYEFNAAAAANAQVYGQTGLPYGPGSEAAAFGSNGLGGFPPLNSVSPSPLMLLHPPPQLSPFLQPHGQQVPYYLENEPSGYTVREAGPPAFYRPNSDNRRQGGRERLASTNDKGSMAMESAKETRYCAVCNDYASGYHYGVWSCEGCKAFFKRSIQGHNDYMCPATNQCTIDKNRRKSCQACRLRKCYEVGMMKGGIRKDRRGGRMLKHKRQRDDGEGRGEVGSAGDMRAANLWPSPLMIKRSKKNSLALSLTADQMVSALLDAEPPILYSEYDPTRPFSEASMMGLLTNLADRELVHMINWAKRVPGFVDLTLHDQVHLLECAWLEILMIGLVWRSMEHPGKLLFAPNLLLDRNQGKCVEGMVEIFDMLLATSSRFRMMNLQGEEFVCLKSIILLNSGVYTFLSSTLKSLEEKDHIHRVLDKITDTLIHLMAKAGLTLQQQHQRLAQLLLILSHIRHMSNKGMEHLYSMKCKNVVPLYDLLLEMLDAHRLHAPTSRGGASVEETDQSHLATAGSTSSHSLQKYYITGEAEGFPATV", "test": "Radioligand ([3H]-estradiol) competition binding to estrogen receptor, ER-α", "settings": "[3H]-estradiol 100 nM, incubated overnight at 4° C., GF/B filtration, scintillation counting; read-out: Affinity constant of ER-α receptor", "protocol": "(§1) The activity of the compound was obtained as follows: the compound was first dissolved in DMSO and formulated into 6-8 concentration gradient solutions. The estrogen receptor and radiolabeled estradiol ([^3H]-estradiol, 100 nM) were added into the buffer and mixed to prepare a reaction solution. Each compound concentration gradient solution was separately added into the reaction solution, mixed, and incubated overnight at 4° C. so that the compound and estradiol fully reacted with the estrogen receptor. Then, the TopCount NXT Liquid Scintillation Counter (Perkin Elmer) was used for the radioactivity intensity measurement after GF/B filtration. Data processing was performed according to the detected values of each concentration to obtain the affinity constant of the compound with estrogen receptor, as shown in the following table: […]", "units": {"Ki": "nM"}, "values": [{"compound": "O=c1c2c(O)cc(O)cc2cnn1-c1ccc(O)cc1", "Ki": 1200}, {"compound": "CCc1nn(-c2ccc(O)cc2)c(=O)c2c(O)cc(O)cc12", "Ki": 98}, {"compound": "O=c1c2c(O)cc(O)c(Br)c2cnn1-c1ccc(O)cc1", "Ki": 3600}, {"compound": "Cc1nn(-c2ccc(O)cc2)c(=O)c2c(O)cc(O)cc12", "Ki": 76}]}, {"target": "ER-β receptor (Homo sapiens, UniProt Q92731)", "sequence (Q92731 whole entry)": "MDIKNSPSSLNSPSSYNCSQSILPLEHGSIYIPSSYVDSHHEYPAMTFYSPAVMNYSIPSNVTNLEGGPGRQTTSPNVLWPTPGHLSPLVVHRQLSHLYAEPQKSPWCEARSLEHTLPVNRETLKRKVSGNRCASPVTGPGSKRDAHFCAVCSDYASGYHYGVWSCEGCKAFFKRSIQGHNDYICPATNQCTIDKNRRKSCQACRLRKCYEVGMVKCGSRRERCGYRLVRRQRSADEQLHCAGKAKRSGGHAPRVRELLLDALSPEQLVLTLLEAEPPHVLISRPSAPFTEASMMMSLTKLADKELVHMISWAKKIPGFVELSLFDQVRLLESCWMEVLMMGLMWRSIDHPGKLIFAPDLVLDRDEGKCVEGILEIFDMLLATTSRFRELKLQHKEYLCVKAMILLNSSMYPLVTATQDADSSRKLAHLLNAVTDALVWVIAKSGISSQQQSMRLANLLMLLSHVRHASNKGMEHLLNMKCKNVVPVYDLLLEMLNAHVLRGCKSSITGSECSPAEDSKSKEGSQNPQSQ", "test": "Radioligand ([3H]-estradiol) competition binding to estrogen receptor, ER-β", "settings": "[3H]-estradiol 100 nM, incubated overnight at 4° C., GF/B filtration, scintillation counting; read-out: Affinity constant of ER-β receptor", "protocol": "as §1", "units": {"Ki": "nM"}, "values": [{"compound": "O=c1c2c(O)cc(O)cc2cnn1-c1ccc(O)cc1", "Ki": 105}, {"compound": "CCc1nn(-c2ccc(O)cc2)c(=O)c2c(O)cc(O)cc12", "Ki": 10}, {"compound": "O=c1c2c(O)cc(O)c(Br)c2cnn1-c1ccc(O)cc1", "Ki": 1500}, {"compound": "Cc1nn(-c2ccc(O)cc2)c(=O)c2c(O)cc(O)cc12", "Ki": 8}]}]}
